In ChEMBL document CHEMBL5260813, “An overview on the recent developments of 1,2,4-triazine derivatives as anticancer compounds” (Eur J Med Chem, 2017):
pIC50: −log10 of the molar value.

Legend:
KB = test: Antiproliferative activity against human KB cells assessed as inhibition of cell growth under hypoxia condition; assay type: functional, cell-based
[1] = Ratio of IC50 for antiproliferative activity against human HL-60 cells assessed as inhibition of cell growth under normoxia condition to IC50 for antiproliferative activity against human HL-60 cells assessed as inhibition of cell growth under hypoxia condition; assay type: functional
[2] = Ratio of IC50 for antiproliferative activity against human Bel-7402 cells assessed as inhibition of cell growth under normoxia condition to IC50 for antiproliferative activity against human Bel-7402 cells assessed as inhibition of cell growth under hypoxia condition; assay type: functional
[3] = Ratio of IC50 for antiproliferative activity against human Eca-109 cells assessed as inhibition of cell growth under normoxia condition to IC50 for antiproliferative activity against human Eca-109 cells assessed as inhibition of cell growth under hypoxia condition; assay type: functional
[4] = Ratio of IC50 for antiproliferative activity against human MCF7 cells assessed as inhibition of cell growth under normoxia condition to IC50 for antiproliferative activity against human MCF7 cells assessed as inhibition of cell growth under hypoxia condition; assay type: functional
[5] = Ratio of IC50 for antiproliferative activity against human PC-3 cells assessed as inhibition of cell growth under normoxia condition to IC50 for antiproliferative activity against human PC-3 cells assessed as inhibition of cell growth under hypoxia condition; assay type: functional
MCF7 [6] = test: Antiproliferative activity against human MCF7 cells assessed as inhibition of cell growth under hypoxic condition by MTT assay; assay type: functional, cell-based
HCT-116 = test: Antiproliferative activity against human HCT-116 cells assessed as inhibition of cell growth under hypoxic condition by MTT assay; assay type: functional, cell-based
NCI-H460 = test: Antiproliferative activity against human NCI-H460 cells assessed as inhibition of cell growth under hypoxic condition by MTT assay; assay type: functional, cell-based
MCF7 [7] = test: Antiproliferative activity against human MCF7 cells assessed as inhibition of cell growth measured after 72 hrs by fluorescence based assay; assay type: functional; settings: MCF7, 72 h
K562 = test: Antiproliferative activity against human K562 cells assessed as inhibition of cell growth measured after 72 hrs by fluorescence based assay; assay type: functional; settings: K562, 72 h

Molecule `CCCOCNc1n[n+]([O-])c2ccccc2[n+]1[O-]` has a pIC50 (KB) of 5.43.
In the case of `CCCCOCNc1n[n+]([O-])c2ccccc2[n+]1[O-]`, the pIC50 (KB) was 5.63.
Molecule `CCCCCOCNc1n[n+]([O-])c2ccccc2[n+]1[O-]` has a pIC50 (KB) of 5.54.
For `CC(C)CCOCNc1n[n+]([O-])c2ccccc2[n+]1[O-]`, the pIC50 (KB) was 5.68.
`[O-][n+]1nc(NCOC2CCCCC2)[n+]([O-])c2ccccc21` showed a pIC50 (KB) of 5.92.
Work on `CCCCCCCOCNc1n[n+]([O-])c2ccccc2[n+]1[O-]` yielded a pIC50 (KB) of 5.46.
Work on `[O-][n+]1nc(NCOCc2ccccc2)[n+]([O-])c2ccccc21` yielded a pIC50 (KB) of 5.38.
In the case of `[O-][n+]1nc(NCOCc2ccc(Cl)cc2)[n+]([O-])c2ccccc21`, the pIC50 (KB) was 5.66.
For `CC(OCNc1n[n+]([O-])c2ccccc2[n+]1[O-])c1ccccc1` (stereo not drawn), the pIC50 (KB) was 5.55.
`O=[N+]([O-])c1cccc(COCNc2n[n+]([O-])c3ccccc3[n+]2[O-])c1` gave a pIC50 (KB) of 5.46.
`CCCOCNc1n[n+]([O-])c2cc(OC)ccc2[n+]1[O-]` showed a pIC50 (KB) of 5.60.
`CCCCCOCNc1n[n+]([O-])c2cc(OC)ccc2[n+]1[O-]` gave a pIC50 (KB) of 5.60.
`COc1ccc2c(c1)[n+]([O-])nc(NCOCc1ccccc1)[n+]2[O-]` showed a pIC50 (KB) of 5.35.
For `[O-][n+]1nc(NCc2ccccc2)[n+]([O-])c2ccccc21`, the “Ratio IC50” value [1] was 4.2, the “Ratio IC50” value [2] was 2.8 and the “Ratio IC50” value [3] was 5.1. The “Ratio IC50” value [4] was 1.9 and the “Ratio IC50” value [5] was 2.3.
With `CCNc1n[n+]([O-])c2ccccc2[n+]1[O-]` the “Ratio IC50” value [1] was 1.6, the “Ratio IC50” value [2] was 2.2 and the “Ratio IC50” value [3] was 5.4. The “Ratio IC50” value [4] was 2.1 and the “Ratio IC50” value [5] was 4.4.
With `CCNc1n[n+]([O-])c2cc(Cl)ccc2[n+]1[O-]` the “Ratio IC50” value [1] was 5.1, the “Ratio IC50” value [2] was 2.4 and the “Ratio IC50” value [3] was 2.7. The “Ratio IC50” value [4] was 3.84.
For `CCNc1n[n+]([O-])c2cc(OC)ccc2[n+]1[O-]`, the “Ratio IC50” value [2] was 1.07, the “Ratio IC50” value [3] was 1.12 and the “Ratio IC50” value [5] was 1.2.
For `[O-][n+]1nc(Nc2ccccc2)[n+]([O-])c2ccccc21`, the “Ratio IC50” value [1] was 2.5, the “Ratio IC50” value [2] was 2 and the “Ratio IC50” value [3] was 4.1. For the same molecule, the “Ratio IC50” value [4] was 2.1 and the “Ratio IC50” value [5] was 2.3.
With `[O-][n+]1nc(NC2CCCCC2)[n+]([O-])c2ccccc21` the “Ratio IC50” value [1] was 4.1, the “Ratio IC50” value [2] was 1.1 and the “Ratio IC50” value [3] was 2.8. The “Ratio IC50” value [4] was 1.9 and the “Ratio IC50” value [5] was 1.5.
`O=C(NCCCCCNc1n[n+]([O-])c2ccccc2[n+]1[O-])C(F)(F)F` showed a pIC50 (MCF7 [6]) of 4.93, a pIC50 (HCT-116) of 4.93 and a pIC50 (NCI-H460) of 4.93.
With `O=C(NCCCCNc1n[n+]([O-])c2ccccc2[n+]1[O-])C(F)(F)F` the pIC50 (MCF7 [6]) was 4.93, the pIC50 (HCT-116) was 4.93 and the pIC50 (NCI-H460) was 4.93.
Work on `CCN(CC)c1nc(=O)n(-c2ccccc2)nc1-c1ccccc1O` yielded a pIC50 (MCF7 [7]) of 5.46 and a pIC50 (K562) of 5.46.
In the case of `O=[N+]([O-])c1ccc2c(c1)[n+]([O-])nc(NC1CCCCC1)[n+]2[O-]`, the “Ratio IC50” value [2] was 1.68, the “Ratio IC50” value [3] was 1.6 and the “Ratio IC50” value [5] was 1.07.
Molecule `NC(CCCCNc1nc(=O)n(-c2ccccc2)nc1-c1ccccc1O)C(=O)O` (stereo not drawn) has a pIC50 (MCF7 [7]) of 5.46 and a pIC50 (K562) of 5.46.
`Nc1nc(=O)n(-c2ccccc2)nc1-c1ccccc1O` gave a pIC50 (MCF7 [7]) of 5.46 and a pIC50 (K562) of 5.46.
`NCCCCNc1n[n+]([O-])c2ccccc2[n+]1[O-]` showed a pIC50 (MCF7 [6]) of 4.93, a pIC50 (HCT-116) of 4.93 and a pIC50 (NCI-H460) of 4.93.
For `NCCCCNc1nc(=O)n(-c2ccccc2)nc1-c1ccccc1O`, the pIC50 (MCF7 [7]) was 5.46 and the pIC50 (K562) was 5.46.
With `O=C(NCCCNc1n[n+]([O-])c2ccccc2[n+]1[O-])C(F)(F)F` the pIC50 (MCF7 [6]) was 4.93, the pIC50 (HCT-116) was 4.93 and the pIC50 (NCI-H460) was 4.93.
Work on `[O-][n+]1nc(NCCNc2n[n+]([O-])c3ccccc3[n+]2[O-])nc2ccccc21` yielded a pIC50 (MCF7 [6]) of 4.93, a pIC50 (HCT-116) of 4.93 and a pIC50 (NCI-H460) of 4.93.
With `Cc1ccc2c(c1)[n+]([O-])nc(Nc1ccccc1)[n+]2[O-]` the “Ratio IC50” value [1] was 1.01, the “Ratio IC50” value [2] was 2.07 and the “Ratio IC50” value [3] was 5.31. For the same molecule, the “Ratio IC50” value [4] was 2.19 and the “Ratio IC50” value [5] was 1.2.
Molecule `O=c1nc(N2CCCCC2)c(-c2ccccc2O)nn1-c1ccccc1` has a pIC50 (MCF7 [7]) of 5.46 and a pIC50 (K562) of 5.46.
